Laboratory results published in patent US7862798B2, “Vitamin-targeted imaging agents” (Endocyte, Inc., priority 2002, dated 2011).

Tested on: FR-positive KB tumors
Assay: Tissue distribution, KB tumor model (Example 16, Table 5)
Assay type: in vivo, nude mice
Conditions: for Blood / Heart / Kidney (one) / Liver & Gall Bladder / Lungs / Muscle / Spleen / Stomach, Intestines & Contents / Tumor: 99mTc-labelled conjugate, 4 hours post i.v.
Protocol: The protocols used in this example are similar to those described in Example 11. The ability of ^99mTc-EC11 (peptide-A1), ^99mTc-EC13 (peptide-A3), and ^99mTc-EC14 (peptide-A2) to target tumors in vivo was assessed using the FR-positive KB tumor model.
FR-positive KB tumor cells (0.25×10^6 per animal) were inoculated subcutaneously in the intracapsular region. Fourteen days after tumor cell inoculation, the animals (n=4/group) were injected intravenously with ^99mTc-EC11, ^99mTc-EC13, or ^99mTc-EC14 at the doses (about 12 μg/kg) of the conjugates shown in Table 5 below. Stocks of ^99mTc-EC11, ^99mTc-EC13, and ^99mTc-EC14 solutions were prepared on the day of use as described above. About a 20-fold excess of free folate (about 200 μg/kg) was co-administered to control animals (n=4/group). […] Selected tissues were removed, weighed, and counted in an automatic gamma counter to determine ^99mTc distribution. Uptake of the radiopharmaceutical in terms of percentage injected dose of wet weight tissue (% ID/g) was calculated by reference to standards prepared from dilutions of the injected preparation.

[1] = folic acid dihydrate co-injected (about 200 μg/kg)
[2] = folic acid dihydrate co-injected

Row | Structure (SMILES) | Blood [1] | Heart [1] | Kidney (one) [1] | Liver & Gall Bladder [1] | Lungs [1] | Muscle [1] | Spleen [1] | Stomach, Intestines & Contents [1] | Tumor [1] | Blood (no folic acid) | Heart (no folic acid) | Kidney (one) (no folic acid) | Liver & Gall Bladder (no folic acid) | Lungs (no folic acid) | Muscle (no folic acid) | Spleen (no folic acid) | Stomach, Intestines & Contents (no folic acid) | Tumor (no folic acid, KB tumor) | Tumor/Blood [2] | Tumor/Kidney [2] | also measured
1 | Nc1nc2ncc(CNc3ccc(C(=O)N[C@@H](CCC(=O)NC[C@H](N)C(=O)N[C@@H](CO)C(=O)N[C@@H](CS)C(=O)O)C(=O)O)cc3)nc2c(=O)[nH]1 [EC13] | 0.16 ± 0.02 Percentage of Injected 99mTc D | 0.20 ± 0.03 Percentage of Injected 99mTc D | 29.1 ± 2.2 Percentage of Injected 99mTc D | 0.65 ± 0.04 Percentage of Injected 99mTc D | 0.23 ± 0.02 Percentage of Injected 99mTc D | 0.21 ± 0.03 Percentage of Injected 99mTc D | 0.15 ± 0.02 Percentage of Injected 99mTc D | 3.7 ± 0.7 Percentage of Injected 99mTc D | 1.67 ± 0.24 Percentage of Injected 99mTc D | 0.25 ± 0.03 Percentage of Injected 99mTc D | 1.6 ± 0.1 Percentage of Injected 99mTc D | 54.5 ± 2.4 Percentage of Injected 99mTc D | 3.5 ± 0.7 Percentage of Injected 99mTc D | 1.1 ± 0.1 Percentage of Injected 99mTc D | 1.7 ± 0.2 Percentage of Injected 99mTc D | 0.39 ± 0.06 Percentage of Injected 99mTc D | 2.5 ± 0.2 Percentage of Injected 99mTc D | 5.46 ± 0.45 Percentage of Injected 99mTc D | 10.2 ± 1.5.^ | 0.058 ± 0.010 | Tumor/Liver [2]: 2.6 ± 0.3; Tumor/Muscle [2]: 8.2 ± 2.0; Tumor/Blood (no folic acid): 22.5 ± 1.4; Tumor/Kidney (no folic acid): 0.10 ± 0.01; Tumor/Liver (no folic acid): 1.6 ± 0.2; Tumor/Muscle (no folic acid): 3.3 ± 0.3
2 | Nc1nc2ncc(CNc3ccc(C(=O)N[C@@H](CCC(=O)N[C@H](CCC(=O)NC[C@H](N)C(=O)N[C@@H](CC(=O)O)C(=O)N[C@@H](CS)C(=O)O)C(=O)O)C(=O)O)cc3)nc2c(=O)[nH]1 [EC14, Pte-D-Glu-D-Glu-βDpr-Asp-Cys] | 0.12 ± 0.02 Percentage of Injected 99mTc D | 0.24 ± 0.01 Percentage of Injected 99mTc D | 20.6 ± 2.4 Percentage of Injected 99mTc D | 0.66 ± 0.07 Percentage of Injected 99mTc D | 0.24 ± 0.02 Percentage of Injected 99mTc D | 0.26 ± 0.02 Percentage of Injected 99mTc D | 0.15 ± 0.01 Percentage of Injected 99mTc D | 0.50 ± 0.10 Percentage of Injected 99mTc D | 2.0 ± 0.5 Percentage of Injected 99mTc D | 0.19 ± 0.02 Percentage of Injected 99mTc D | 3.0 ± 0.5 Percentage of Injected 99mTc D | 44.2 ± 6.4 Percentage of Injected 99mTc D | 4.5 ± 1.0 Percentage of Injected 99mTc D | 1.6 ± 0.3 Percentage of Injected 99mTc D | 2.4 ± 0.4 Percentage of Injected 99mTc D | 0.41 ± 0.06 Percentage of Injected 99mTc D | 1.4 ± 0.1 Percentage of Injected 99mTc D | 5.57 ± 0.76 Percentage of Injected 99mTc D | 17.0 ± 4.5 | 0.10 ± 0.01 | Tumor/Liver [2]: 3.0 ± 0.6; Tumor/Muscle [2]: 7.7 ± 1.7; Tumor/Blood (no folic acid): 29.3 ± 5.2; Tumor/Kidney (no folic acid): 0.13 ± 0.03; Tumor/Liver (no folic acid): 1.3 ± 0.3; Tumor/Muscle (no folic acid): 2.4 ± 0.6
